Assay results reported in patent US11247994B2, “6-dithio-substituted-2′-deoxyguanosine compound, preparation method thereof and use thereof” (ZHEJIANG UNIVERSITY, priority 2018, dated 2022).
Where two headings read alike, the source gives them in different places.

Experiments:
[1] = system: human breast cancer cells Bcap37; assay: MTT assay, tumor cell growth inhibition, Bcap37; format: cell-based; details: 48 hours
Text: (§1) MTT Assay—Inhibitory Effect of 6-dithio-substituted-2′-deoxyguanosine Derivatives on Tumor Cell Growth
(§2) We measured the tumor cell growth inhibitory activity of candidate compounds by MTT assay. Human tumor cells in logarithmic growth phase were digested with 0.25% pancreatin for a certain time, centrifuged, re-suspended and counted with a blood cell counting plate to prepare a cell suspension, and the cell suspension was adjusted to 1.0×10^4-1×10^5 cells/mL. The cell suspension was inoculated into a 96-well culture plate, 100 μL per well, and cultured in an incubator with saturated humidity, 37° C. and 5% CO2 for 24 hours until the cells completely adhered to the wall. The test compound was diluted to the required concentration with a complete medium, the complete medium of the 96-well culture plate inoculated with human tumor cells was sucked out, a medicament-containing medium was added, 100 μL per well, the final concentration of DMSO was less than 0.1%, and the culture plate was put in an incubator for 48 hours. 10 μl of MTT was added to each well of the 96-well plate, and the culture was continued for 4 h. The culture was stopped and the culture solution in the well was carefully sucked off. 150 μL DMSO was added to each well, and shaken at a low speed for 10 min on a shaking table, so that the crystal was fully dissolved. The absorbance of each well was measured at OD 570 nm of an enzyme-linked immunosorbent assay instrument. At the same time, zeroing wells (the culture medium, MTT, dimethyl sulfoxide) and control wells (cells, a drug dissolution medium with the same concentration, a culture solution, MTT, dimethyl sulfoxide) were set up, and the cell growth inhibitory activity was calculated with the corresponding solvents as the control. 3-6 multiple wells in each group were set up with repetition of several times. Cell viability of control=(Adrug group−Azeroing well)/(Acontrol well−Azeroing well)*100%. Drawing was drawn, the data were fitted into a concentration response curve with a variable slope, and IC50 value was calculated from the curve.

[2] = system: human liver cancer cells HepG2; assay: MTT assay, tumor cell growth inhibition, HepG2; format: cell-based; details: 48 hours
Text: as §1, §2

[3] = target: T1, TrxR/Trx-1 (Homo sapiens, UniProt P10599); assay: Ellman test, inhibition of TrxR/Trx-1 activity; format: biochemical
T1 sequence (P10599 2-105 limits assumed): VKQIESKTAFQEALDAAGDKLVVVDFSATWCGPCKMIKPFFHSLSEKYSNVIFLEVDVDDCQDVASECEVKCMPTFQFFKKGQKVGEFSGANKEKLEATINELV
Text: Ellman Test—Inhibitory Effect of 6-dithio-substituted-2′-deoxyguanosine Derivative Analogues on TrxR/Trx-1 Activity
A TrxR/TR experiment based on the Ellman reaction was used to determine the inhibitory activity of candidate compounds. Ellman reaction is that 5,5′-dithiobis (2-nitrobenzoic acid) (DTNB) reacts with sulfhydryl (—SH) to form a yellow substance with absorption at 412 nm. The increase of absorption can be equivalent to the decrease of NADPH mediated by TrxR, thus further judging the activity of TrxR/Trx-1. All experiments were carried out on 96-well plates. Before the start of the enzyme reaction, five groups of corresponding test compound stock solutions with different concentrations were prepared. In the TrxR/Trx-1 reaction, a total volume per well was 60 μL, including 100 mM HEPES, 5 mM EDTA (HE buffer, pH 7.5), 1 mM NADPH, 1.0 μM TrxR, 0.8 μM Trx-1, 2.5 mg/mL bovine insulin and the required concentration of compounds to be tested. No compound to be tested was added to the control group. No compound to be tested, TrxR and Trx-1 were added in the blank group. The plate was shaken on an oscillator for 30 seconds to fully mix the reactants. After incubation at 37° C. for 30 min, 100 μL of the prepared mixture containing 6 M guanidine hydrochloride, 50 mm Tris and 10 mm DTNB was added to terminate the reaction. After 15 minutes of incubation, the absorbance was measured at 412 nm. Finally, TrxR/Trx-1 activity %=(Atest−Akb)/(Acontrol−Akb), that is, the relative percentage of TrxR/Trx-1 activity was the activity inhibited by adding 2′-deoxyguanosine derivatives relative to the activity without 2′-deoxyguanosine derivatives. The data were fitted into a concentration response curve with a variable slope, and the IC50 value was calculated from the curve.

[4] = system: human colon cancer cell line HCT116 subcutaneous transplanted tumor; assay: Tumor-bearing test in nude mice, HCT116 subcutaneous transplanted tumor (tumor volume, TUNEL); format: in vivo; details: HCT116 model; for Extent of apoptosis in tumor tissue (TUNEL staining, rank order): frozen tumor sections, DAPI and TUNEL, G group = blank; for Inhibitory effect on the growth of subcutaneous transplanted tumor tissue in nude mice (rank order, from slope of tumor volume): compound A 2 mg/kg first 8 times, 10 mg/kg last 4 times, others equimolar, KB = blank
Text: Tumor-Bearing Test in Nude Mice—Inhibitory Effect of 6-Dithio-Substituted-2′-Deoxyguanosine Derivatives on the Growth of Subcutaneous Transplanted Tumor Tissue in Nude Mice
1) Tumor-Bearing Mouse Model of Human Colon Cancer Cell Line HCT116
(§3) We took human colon cancer cell line HCT116 as the research object, and established a subcutaneous transplanted tumor model of human colon cancer in 32 immunodeficient nude mice. The 24th generation HCT116 cells in logarithmic growth phase were digested with pancreatin to prepare a single-cell suspension, and 1×10^7 cells were inoculated subcutaneously in the right armpit of male nude mice about 5 weeks old. After inoculation, cyclophosphamide (100 mg/kg) was injected intraperitoneally for two consecutive days. […] On the 20th day after colon cancer cell HCT116 was implanted subcutaneously, nude mice were divided into 7 groups by a random number table method, including a test drug group, a positive control group and a blank control group. Specifically, group A: the compound A was administrated; Group B: the compound B was administrated; Group C: the compound C was administrated; Group D: the compound D was administrated; Group E: the compound 6-thio-DG was administrated; Group F: the compound PX-12 was administrated; Group G: blank group, without administration of any compound. Except group C with 3 rats and group G with 4 rats, all other 5 groups had 5 rats, they mice were labeled and injected by tail vein once every two days for 24 days, 12 times, with the dose of compound A being 2 mg/kg for the first 8 times and 10 mg/kg for the last 4 times, and the dosages of other drugs being the same molar weights. The tumor volume was calculated by taking the length of the tumor as the longest diameter and the width as the corresponding vertical diameter, and the tumor volume V=(length×width^2) mm^3/2. 48 hours after the last treatment, blood was taken from the eyes, and then the animals were killed. Blood was centrifuged to get the supernatant, and then blood biochemical analysis was performed. Paraffin embedded sections of fixed tissues were stained with HE. The tumor mass in a frozen tissue was sectioned in a frozen state, and then stained by DAPI and TUNEL to judge the apoptosis of the tumor tissue in nude mice.

[5] = system: human colon cancer cells HT29; assay: MTT assay, tumor cell growth inhibition, HT29; format: cell-based; details: HT-29, 48 hours
Text: as §1, §2

[6] = system: human leukemia cells K562; assay: MTT assay, tumor cell growth inhibition, K562; format: cell-based; details: 48 hours
Text: as §1, §2

[7] = system: human colon cancer cells HCT116; assay: MTT assay, tumor cell growth inhibition, HCT116; format: cell-based; details: HCT-116, 48 hours
Text: as §1, §2

[8] = system: human melanoma cells A375; assay: MTT assay, tumor cell growth inhibition, A375; format: cell-based; details: A-375, 48 hours
Text: as §1, §2

[9] = Blood biochemical analysis and HE staining of tissues in HCT116 tumor-bearing nude mice; format: in vivo; details: tail vein once every two days, 12 times, blood 48 hours after the last treatment
Procedure: as §3

[10] = system: NCM460; assay: MTT assay, cell growth inhibition, NCM460; format: cell-based; details: Homo sapiens, 48 hours, read-out: Tumor cell growth inhibition IC50, NCM460
Text: as §1, §2

[11] = system: human non-small cell lung cancer A549; assay: MTT assay, tumor cell growth inhibition, A549; format: cell-based; details: 48 hours
Text: as §1, §2

[12] = system: human breast cancer cells MCF7; assay: MTT assay, tumor cell growth inhibition, MCF7; format: cell-based; details: 48 hours
Text: as §1, §2

[13] = system: human colon cancer cells SW620; assay: MTT assay, tumor cell growth inhibition, SW620; format: cell-based; details: SW-620, 48 hours
Text: as §1, §2

[14] = Ellman reaction, 37° C. 30 min, absorbance 412 nm, read-out: IC50, inhibition of TrxR/Trx-1 activity
[15] = tail vein once every two days for 24 days

IC50 [1] [µM]	IC50 [2] [µM]	IC50 [3, 14] [µM]	IC50 [5] [µM]	IC50 [6] [µM]	IC50 [7] [µM]	IC50 [8] [µM]	Alanine aminotransferase [9] [U/L]	Albumin [9] [g/L]	Alkaline phosphatase [9] [U/L]	Aspartate aminotransferase [9] [U/L]	BUN [9] [mmol/L]	Chloride ion [9] [mmol/L]	Creatine kinase [9] [U/L]	Creatinine [9] [µmol/L]	Glucose [9] [mmol/L]	Potassium ion [9] [mmol/L]	SMILES	Extent of apoptosis in tumor tissue (TUNEL staining, rank order) [4]	Inhibitory effect on the growth of subcutaneous transplanted tumor tissue in nude mice (rank order, from slope of tumor volume) [4, 15]	IC50 [10] [µM]	also measured
35.1	10 to 50	47.7	7.37	28.7	21.8	3.06	25.5	27.9	33.7	128.3	9.00	120.5	980.7	6.67	2.99	6.17	CC(C)(C)SSc1nc(N)nc2c1ncn2C1C[C@H](O)[C@@H](CO)O1 (stereo partly shown) [Compound C, 6-(tert-butyldithio)-2′-deoxyguanosine]	D group>A group≈B group≈E group (6-thio-dG group)>C group>F group (PX-12 group)>G group (KB group)	D>B≈A≈6-thio-dG>PX-12>C>KB	> 1000	Sodium ion [9]: 159.0 mmol/L; Total bilirubin [9]: 0.80 µmol/L; Total cholesterol [9]: 2.65 mmol/L; Total protein [9]: 51.6 g/L; Triglyceride [9]: 1.15 mmol/L; IC50 [11]: 35.8 µM
> 100	10 to 50	2.55	3.37	21.7	34.5	2.98	30.8	33.0	44.2	169.0	8.10	109.9	1434	3.20	1.47	7.64	CCC(C)SSc1ncc[nH]1 (stereo not shown) [PX-12, 1-methylpropyl-2-imidazolyl disulfide, reference compound]	D group>A group≈B group≈E group (6-thio-dG group)>C group>F group (PX-12 group)>G group (KB group)	D>B≈A≈6-thio-dG>PX-12>C>KB	> 1000	IC50 [12]: > 100 µM; IC50 [13]: 1.68 µM; Sodium ion [9]: 155.8 mmol/L; Total bilirubin [9]: -0.90 µmol/L; Total cholesterol [9]: 2.53 mmol/L; Total protein [9]: 56.9 g/L; Triglyceride [9]: 1.18 mmol/L; IC50 [11]: 7.43 µM
> 100	–	> 100	9.44	7.86	28.4	–	–	–	–	–	–	–	–	–	–	–	Nc1nc(Cl)nc2c1ncn2[C@H]1C[C@H](O)[C@@H](CO)O1 [Cladribine, reference compound]	–	–	> 1000	IC50 [12]: > 100 µM; IC50 [13]: > 100 µM
21	< 10	–	3.02	10.1	2.66	0.52	105.9	26.3	31.0	254.4	14.8	124.0	2169	8.67	2.29	6.26	Nc1nc(SSCc2ccc(F)cc2)c2ncn(C3C[C@H](O)[C@@H](CO)O3)c2n1 (stereo partly shown) [B, 6-(p-fluorobenzyldithio)-2′-deoxyguanosine]	D group>A group≈B group≈E group (6-thio-dG group)>C group>F group (PX-12 group)>G group (KB group)	D>B≈A≈6-thio-dG>PX-12>C>KB	> 1000	IC50 ([3]; read-out: TrxR/Trx-1 IC50): 9.78 µM; Ability to inhibit the growth of transplanted tumor tissue compared with positive controls ([4]; tail vein once every two days for 24 days, equimolar doses): close to that of the positive control 6-thio-dG and stronger than that of the positive control PX-12; IC50 [12]: 15.6 µM; IC50 [13]: 1.71 µM; Sodium ion [9]: 158.0 mmol/L; Total bilirubin [9]: 0.90 µmol/L; Total cholesterol [9]: 2.76 mmol/L; Total protein [9]: 50.7 g/L; Triglyceride [9]: 0.52 mmol/L; IC50 [11]: 13.5 µM
